# In patent US20080139388A1, “Synergistic Insecticide Mixtures” (priority 2004, published 2008):
# What was measured:
# Myzus persicae = Myzus persicae test (cabbage leaf dip); format: in vivo
# Description: (§1) Formula for the calculation of the kill rate of a combination of two active compounds
# (§2) The expected activity for a given combination of two active compounds can be calculated (cf. COLBY, S. R.; “Calculating Synergistic and Antagonistic Responses of Herbicide Combinations”, Weeds 15, pages 20-22, 1967):
# (§3) if • X=the kill rate, expressed in % of the untreated control, when employing active compound A at an application rate of m ppm, • Y=the kill rate, expressed in % of the untreated control, when employing active compound B at an application rate of n ppm, • E=the kill rate, expressed in % of the untreated control, when employing active compounds A and B at application rates of m and n ppm, then
# (§4) If the actual insecticidal kill rate is higher than the calculated one, the kill rates of the combination are superadditive, i.e. a synergistic effect is present. In this case, the kill rate that is actually observed has to be higher than the value, calculated using the formula above, for the expected kill rate (E).
# Solvent: 7 parts by weight of dimethylformamide Emulsifier: 2 parts by weight of alkylaryl polyglycol ether
# To produce a suitable preparation of active compound, 1 part by weight of active compound is mixed with the stated amounts of solvent and emulsifier, and the concentrate is diluted with emulsifier-containing water to the desired concentration.
# Cabbage leaves (Brassica oleracea) which are heavily infested by the green peach aphid (Myzus persicae) are treated by being dipped into the preparation of active compound of the desired concentration.
# After the desired period of time, the kill in % is determined. 100% means that all aphids have been killed; 0% means that none of the aphids have been killed. The determined kill rates are entered into Colby's formula.
# [1] = tested on: Plutella xylostella (normally sensitive strain); test: Plutella xylostella test, normally sensitive strain (cabbage leaf dip); format: in vivo; settings: 20 ppm
# Description: as §1, §2, §3, §4
# To produce a suitable preparation of active compound, 1 part by weight of active compound is mixed with the stated amounts of solvent and emulsifier, and the concentrate is diluted with emulsifier-containing water to the desired concentration. […]
# After the desired period of time, the kill in % is determined. […] The determined kill rates are entered into Colby's formula (see sheet 1).
structure (smiles),measurement,setting,value
C/C(=N\C#N)N(C)Cc1ccc(Cl)nc1 [acetamiprid],Kill in % after 6 days,Myzus persicae; 0.16 ppm,30%
"CNC(=O)Oc1cc(C)c(SC)c(C)c1 [methiocarb, 3,5-dimethyl-4-(methylthio)phenyl methylcarbamate]",Kill in % after 3 days,[1],0%
same,Kill in % after 1 day,"Myzus persicae; 20 ppm, after 1 day (Table A2)",5%
same,Kill in % after 1 day,"Myzus persicae; 20 ppm, after 1 day (Table A3)",5%
same,Kill in % after 6 days,Myzus persicae; 100 ppm,50%
N#C/N=C1\SCCN1Cc1ccc(Cl)nc1 [thiacloprid],Kill in % after 3 days,[1],0%
same,Kill in % after 1 day,"Myzus persicae; 0.8 ppm, after 1 day (Table A3)",20%
CN/C(=N\[N+](=O)[O-])NCc1cnc(Cl)s1 [clothianidin],Kill in % after 1 day,"Myzus persicae; 0.16 ppm, after 1 day (Table A2)",0%
